In PubChem BioAssay AID192 (DTP/NCI, 2004):
“And” between values parts separate entries of the source, which are not always exact repeats. Equal values may be shown once. Inconclusive results and toxic doses are left out. Numbered stars: 1 amine (or outer) side, 2 acyl side, 3 side chain; on linkers, the order of the positions; unused ones are H or OH. Bridge positions count the residues as written; N and C are the ends. Square brackets hold non-standard residues; d marks the D form. Peptide text beside a SMILES is read from it. I, II: the chains in the order shown. Actinocin(9to1) = Cc1c2oc3c(C)ccc(C(=O)[*:1])c3nc-2c(C(=O)[*:2])c(N)c1=O; aThr = C[C@H](O)[C@H](N)C(=O)O; NMeV = CN[C@H](C(=O)O)C(C)C; Sar = CNCC(=O)O

Test system: BDF1 mice, B16 melanoma ip, median survival T/C
Assay: NCI In Vivo Anticancer Drug Screen. Data for tumor model B16 Melanoma (intraperitoneal) in B6D2F1 (BDF1) mice
Settings: endpoint: median survival time, higher = longer survival
Experimental: The antitumor activity of compounds was measured in mice bearing transplantable tumors. Survival or tumor size were measured and the results are expressed as the measurement made in the treated group (T) divided by the measurement made in the vehicle treated control group (C). The tumor model used in this assay is B16 Melanoma (intraperitoneal) in B6D2F1 (BDF1) mice

[1] = dose: 100.0 mg/kg/injection, schedule: Q01DX009 (ip), vehicle: Klucel (hydroxypropylcellulose) (HPC)
[2] = dose: 200.0 mg/kg/injection, schedule: Q01DX009 (ip), vehicle: Klucel (hydroxypropylcellulose) (HPC)
[3] = dose: 400.0 mg/kg/injection, schedule: Q01DX009 (ip), vehicle: Klucel (hydroxypropylcellulose) (HPC)
[4] = dose: 25.0 mg/kg/injection, schedule: Q04DX003 (ip), vehicle: saline with Tween-80
[5] = dose: 50.0 mg/kg/injection, schedule: Q04DX003 (ip), vehicle: saline with Tween-80

For `Cc1c2oc3c(C)ccc(C(=O)N[C@@H]4C(=O)N[C@H](C(C)C)C(=O)N5CCC[C@H]5C(=O)N(C)CC(=O)N(C)[C@@H](C(C)C)C(=O)O[C@H]4C)c3nc-2c(C(=O)N[C@@H]2C(=O)N[C@H](C(C)C)C(=O)N3CCC[C@H]3C(=O)N(C)CC(=O)N(C)[C@@H](C(C)C)C(=O)O[C@H]2C)c(N)c1=O` (I: [aThr][dV]P[Sar][NMeV] / II: [aThr][dV]P[Sar][NMeV]; ester I:1-I:C, II:1-II:C; linker I:N-II:N via Actinocin(9to1)), the T/C (dose: 0.03 mg/kg/injection, schedule: Q01DX009 (ip), vehicle: water) was 157 % of control, the T/C (dose: 0.05 mg/kg/injection, schedule: Q01DX009 (ip), vehicle: water) was 186 % of control and the T/C (dose: 0.05 mg/kg/injection, schedule: Q04DX003 (ip), vehicle: saline) was 123 % of control and 124 % of control. The T/C (dose: 0.08 mg/kg/injection, schedule: Q01DX009 (ip), vehicle: saline) was 169 % of control, the T/C (dose: 0.13 mg/kg/injection, schedule: Q01DX009 (ip), vehicle: saline) was 44 % of control and the T/C (dose: 0.2 mg/kg/injection, schedule: Q04DX003 (ip), vehicle: saline) was 164 % of control. For the same compound, the T/C (dose: 0.22 mg/kg/injection, schedule: Q01DX009 (ip), vehicle: saline) was 42 % of control, the T/C (dose: 0.4 mg/kg/injection, schedule: Q04DX003 (ip), vehicle: saline) was 65 % of control and 69 % of control and the T/C (dose: 0.5 micrograms/kg/injection, schedule: Q01DX009 (ip), vehicle: saline) was 119 % of control. For the same compound, the T/C (dose: 2.0 micrograms/kg/injection, schedule: Q01DX009 (ip), vehicle: saline) was 116 % of control, the T/C (dose: 4.0 micrograms/kg/injection, schedule: Q01DX009 (ip), vehicle: saline) was 150 % of control and the T/C (dose: 6.25 micrograms/kg/injection, schedule: Q01DX009 (ip), vehicle: saline) was 101 % of control. The T/C (dose: 6.3 micrograms/kg/injection, schedule: Q01DX009 (ip), vehicle: saline) was 96 % of control, the T/C (dose: 6.5 micrograms/kg/injection, schedule: Q01DX009 (ip), vehicle: saline) was 120 % of control and the T/C (dose: 10.8 micrograms/kg/injection, schedule: Q01DX009 (ip), vehicle: saline) was 112 % of control. The T/C (dose: 12.5 micrograms/kg/injection, schedule: Q01DX009 (ip), vehicle: water) was 120 % of control, the T/C (dose: 16.0 micrograms/kg/injection, schedule: Q01DX009 (ip), vehicle: saline) was 157 % of control and the T/C (dose: 16.0 micrograms/kg/injection, schedule: Q01DX017 (ip), vehicle: saline) was 185 % of control. The T/C (dose: 21.6 micrograms/kg/injection, schedule: Q01DX009 (ip), vehicle: saline + alcohol) was 123 % of control, the T/C (dose: 25.0 micrograms/kg/injection, schedule: Q01DX009 (ip), vehicle: saline + alcohol) was 120 % of control and the T/C (dose: 32.0 micrograms/kg/injection, schedule: Q01DX005 (ip), vehicle: saline) was 120 % of control. For the same compound, the T/C (dose: 32.0 micrograms/kg/injection, schedule: Q01DX009 (ip), vehicle: saline) was 155 % of control, the T/C (dose: 32.0 micrograms/kg/injection, schedule: Q01DX017 (ip), vehicle: saline) was 200 % of control and the T/C (dose: 36.0 micrograms/kg/injection, schedule: Q01DX009 (ip), vehicle: saline + alcohol) was 152 % of control. For the same compound, the T/C (dose: 37.5 micrograms/kg/injection, schedule: Q01DX009 (ip), vehicle: saline + alcohol) was 153 % of control, the T/C (dose: 37.5 micrograms/kg/injection, schedule: Q01DX009 (ip), vehicle: saline) was 159 % of control and the T/C (dose: 37.5 micrograms/kg/injection, schedule: Q04DX003 (ip), vehicle: saline) was 118 % of control. For the same compound, the T/C (dose: 38.9 micrograms/kg/injection, schedule: Q04DX003 (ip), vehicle: saline + alcohol) was 123 % of control, the T/C (dose: 50.0 micrograms/kg/injection, schedule: Q01DX009 (ip), vehicle: saline + alcohol) was 158 % of control and the T/C (dose: 50.0 micrograms/kg/injection, schedule: Q01DX009 (ip), vehicle: water) was 152 % of control and 166 % of control. For the same compound, the T/C (dose: 60.0 micrograms/kg/injection, schedule: Q01DX009 (ip), vehicle: saline + alcohol) was 152 % of control and 161 % of control, the T/C (dose: 64.0 micrograms/kg/injection, schedule: Q01DX005 (ip), vehicle: saline) was 152 % of control and the T/C (dose: 64.8 micrograms/kg/injection, schedule: Q04DX003 (ip), vehicle: saline + alcohol) was 154 % of control. For the same compound, the T/C (dose: 75.0 micrograms/kg/injection, schedule: Q01DX009 (ip), vehicle: saline) was 186 % of control, the T/C (dose: 75.0 micrograms/kg/injection, schedule: Q04DX003 (ip), vehicle: water) was 123 % of control and the T/C (dose: 83.0 micrograms/kg/injection, schedule: Q01DX009 (ip), vehicle: saline) was 175 % of control. The T/C (dose: 100.0 micrograms/kg/injection, schedule: Q01DX009 (ip), vehicle: saline + alcohol) was 169 % of control, the T/C (dose: 100.0 micrograms/kg/injection, schedule: Q01DX009 (ip), vehicle: water) was 175 % of control and the T/C (dose: 108.0 micrograms/kg/injection, schedule: Q04DX003 (ip), vehicle: saline + alcohol) was 150 % of control and 159 % of control and 160 % of control. For the same compound, the T/C (dose: 128.0 micrograms/kg/injection, schedule: Q01DX005 (ip), vehicle: saline) was 165 % of control, the T/C (dose: 128.0 micrograms/kg/injection, schedule: Q04DX003 (ip), vehicle: saline) was 150 % of control and the T/C (dose: 180.0 micrograms/kg/injection, schedule: Q04DX003 (ip), vehicle: saline + alcohol) was 164 % of control and 172 % of control and 176 % of control. The T/C (dose: 225.0 micrograms/kg/injection, schedule: Q04DX003 (ip), vehicle: saline + alcohol) was 91 % of control, the T/C (dose: 225.0 micrograms/kg/injection, schedule: Q04DX003 (ip), vehicle: saline) was 159 % of control and the T/C (dose: 256.0 micrograms/kg/injection, schedule: Q04DX003 (ip), vehicle: saline) was 165 % of control. The T/C (dose: 300.0 micrograms/kg/injection, schedule: Q04DX003 (ip), vehicle: saline) was 168 % of control and 169 % of control, the T/C (dose: 300.0 micrograms/kg/injection, schedule: Q04DX003 (ip), vehicle: water) was 106 % of control and the T/C (dose: 500.0 micrograms/kg/injection, schedule: Q04DX003 (ip), vehicle: saline + alcohol) was 101 % of control. For the same compound, the T/C (dose: 512.0 micrograms/kg/injection, schedule: Q01DX001 (ip), vehicle: saline) was 92 % of control and the T/C (dose: 600.0 micrograms/kg/injection, schedule: Q04DX003 (ip), vehicle: saline) was 231 % of control.
In the case of `CCOC(=O)C1CCCN(S(=O)(=O)c2ccc(C)cc2)c2ccccc2C1=O` (stereo not drawn), the T/C (dose: 100.0 mg/kg/injection, schedule: Q04DX003 (ip), vehicle: Klucel (hydroxypropylcellulose) (HPC)) is reported as 96 % of control, the T/C (dose: 200.0 mg/kg/injection, schedule: Q04DX003 (ip), vehicle: Klucel (hydroxypropylcellulose) (HPC)) is reported as 88 % of control and the T/C (dose: 400.0 mg/kg/injection, schedule: Q04DX003 (ip), vehicle: Klucel (hydroxypropylcellulose) (HPC)) is reported as 95 % of control.
`O=C(CCCl)NC(Cc1ccccc1)c1ccccc1` (stereo not drawn) was tested, and the T/C [1] was 110 % of control, the T/C [2] was 96 % of control and the T/C [3] was 96 % of control.
With `Cc1ccccc1NC(=O)c1cc2ccccc2cc1O` the T/C (dose: 100.0 mg/kg/injection, schedule: Q01DX009 (ip), vehicle: saline with Tween-80) was 110 % of control, the T/C (dose: 200.0 mg/kg/injection, schedule: Q01DX009 (ip), vehicle: saline with Tween-80) was 110 % of control and the T/C (dose: 400.0 mg/kg/injection, schedule: Q01DX009 (ip), vehicle: saline with Tween-80) was 107 % of control.
With `CC12CCC(O)CC1CCC1C2CCC2(C)C(c3ccc(=O)oc3)C(O)C3OC132` (stereo not drawn) the T/C (dose: 0.94 mg/kg/injection, schedule: Q01DX009 (ip), vehicle: Klucel (hydroxypropylcellulose) (HPC)) was 103 % of control, the T/C (dose: 1.87 mg/kg/injection, schedule: Q01DX009 (ip), vehicle: Klucel (hydroxypropylcellulose) (HPC)) was 98 % of control and the T/C (dose: 3.5 mg/kg/injection, schedule: Q01DX009 (ip), vehicle: Klucel (hydroxypropylcellulose) (HPC)) was 94 % of control.
`CCCCCCCCCC(=O)N(C)OC` was tested, and the T/C (dose: 12.5 mg/kg/injection, schedule: Q04DX003 (ip), vehicle: saline with Tween-80) was 100 % of control, the T/C [4] was 104 % of control and the T/C [5] was 100 % of control.
For `CCCC(C)C/C(C)=C/C(C)(C)C(CC(=O)N1CCOCC1)C(=O)O` (stereo not drawn), the T/C (dose: 12.5 mg/kg/injection, schedule: Q01DX009 (ip), vehicle: saline with Tween-80) was 100 % of control, the T/C (dose: 25.0 mg/kg/injection, schedule: Q01DX009 (ip), vehicle: saline with Tween-80) was 92 % of control and the T/C [4] was 92 % of control. For the same compound, the T/C [5] was 92 % of control.
With `COc1cc2c(cc1OC)C(CNC(=O)/C=C/c1ccccc1)C2` (stereo not drawn) the T/C [1] was 122 % of control, the T/C [2] was 97 % of control and the T/C [3] was 94 % of control.
With `COc1cccc(C(Cc2ccccc2)NCc2ccccc2)c1` (stereo not drawn) the T/C [1] was 106 % of control, the T/C [2] was 100 % of control and the T/C [3] was 96 % of control.
`NCC(=O)NC(CCCN=C(N)N)C(=O)O` (stereo not drawn) was tested, and the T/C (dose: 50.0 mg/kg/injection, schedule: Q01DX009 (ip), vehicle: saline) was 103 % of control, the T/C (dose: 100.0 mg/kg/injection, schedule: Q01DX009 (ip), vehicle: saline) was 98 % of control and the T/C (dose: 200.0 mg/kg/injection, schedule: Q01DX009 (ip), vehicle: saline) was 92 % of control.
